Measured values published in US10202361B2, “Pyridazinones as herbicides” (E I DU PONT DE NEMOURS AND COMPANY, priority 2014, dated 2019).
Where two headings read alike, the source gives them in different places.

Assays:
Test in all cases: Test C pre-/postemergence greenhouse herbicide test
Assay type in all cases: in vivo
[1] = system: barnyardgrass (Echinochloa crus-galli); settings: Barnyardgrass
Description: (§1) Seeds of plant species selected from blackgrass (Alopecurus myosuroides), bromegrass, downy (downy bromegrass, Bromus tectorum), foxtail, green (green foxtail, Setaria viridis), ryegrass, Italian (Italian ryegrass, Lolium multiflorum), wheat (winter wheat, Triticum aestivum), oat, wild (wild oat, Avena fatua), galium (catchweed bedstraw, Galium aparine), bermudagrass (Cynodon dactylon), surinam grass (Brachiaria decumbens), cocklebur (common cocklebur, Xanthium strumarium), corn (Zea mays), crabgrass, large (large crabgrass, Digitaria sanguinalis), cupgrass, woolly (woolly cupgrass, Eriochloa villosa), foxtail, giant (giant foxtail, Setaria faberii), goosegrass (Eleusine indica), johnsongrass (Sorghum halepense), kochia (Kochia scoparia), lambsquarters (Chenopodium album), morningglory (Ipomoea coccinea), nightshade (eastern black nightshade, Solanum ptycanthum), nutsedge, yellow (yellow nutsedge, Cyperus esculentus), pigweed (Amaranthus retroflexus), ragweed (common ragweed, Ambrosia elatior), soybean (Glycine max), sunflower (common oilseed sunflower, Helianthus annuus), Russian thistle (Salsola kali), barnyardgrass (Echinochloa crus-galli), oilseed rape (Brassica napus), waterhemp (common waterhemp, Amaranthus rudis), and velvetleaf (Abutilon theophrasti) were planted into a blend of loam soil and sand and treated preemergence with test chemicals formulated in a non-phytotoxic solvent mixture which included a surfactant.
(§2) At the same time, plants selected from these crop and weed species and also barley (winter barley, Hordeum vulgare), canarygrass (Phalaris minor), windgrass (Apera spica-venti), deadnettle (henbit deadnettle, Lamium amplexicaule), and chickweed (common chickweed, Stellaria media) were planted in pots containing Redi-Earth® planting medium (Scotts Company, 14111 Scottslawn Road, Marysville, Ohio 43041) comprising spaghnum peat moss, vermiculite, wetting agent and starter nutrients and treated with postemergence applications of test chemicals formulated in the same manner. Plants ranged in height from 2 to 18 cm (1- to 4-leaf stage) for postemergence treatments. Treated plants and controls were maintained in a greenhouse for 13 to 15 d, after which time all species were compared to controls and visually evaluated. Plant response ratings, summarized in Table C, are based on a scale of 0 to 100 where 0 is no effect and 100 is complete control. A dash (-) response means no test result.

[2] = system: corn (Zea mays); settings: Zea mays, Corn, read-out: Plant response rating; for plant injury at 31 g/ha: 31 g ai/ha; for plant injury at 62 g/ha: 62 g ai/ha; for plant injury at 125 g/ha: 125 g ai/ha; for plant injury at 250 g/ha: 250 g ai/ha
Description: as §1, §2

[3] = system: crabgrass, Large (large crabgrass, Digitaria sanguinalis); settings: Digitaria sanguinalis, Crabgrass, Large, read-out: Plant response rating; for pest or weed control at 31 g/ha: 31 g ai/ha; for pest or weed control at 62 g/ha: 62 g ai/ha; for pest or weed control at 125 g/ha: 125 g ai/ha; for pest or weed control at 250 g/ha: 250 g ai/ha
Description: as §1, §2

[4] = system: foxtail, giant (giant foxtail, Setaria faberii); settings: Setaria faberi, Foxtail, Giant, read-out: Plant response rating; for pest or weed control at 31 g/ha: 31 g ai/ha; for pest or weed control at 62 g/ha: 62 g ai/ha; for pest or weed control at 125 g/ha: 125 g ai/ha; for pest or weed control at 250 g/ha: 250 g ai/ha
Description: as §1, §2

[5] = system: galium (catchweed bedstraw, Galium aparine); settings: Galium, read-out: Plant response rating; for pest or weed control at 31 g/ha: 31 g ai/ha; for pest or weed control at 62 g/ha: 62 g ai/ha; for pest or weed control at 125 g/ha: 125 g ai/ha; for pest or weed control at 250 g/ha: 250 g ai/ha
Description: as §1, §2

[6] = system: kochia (Kochia scoparia); settings: Postemergence
Description: as §1, §2

[7] = system: lambsquarters (Chenopodium album)
Description: as §1, §2

## Cc1cc(=O)n(-c2ccc(F)cc2)nc1Cc1ccnc(C(F)(F)F)c1 [Compound 1, 2-(4-fluorophenyl)-5-methyl-6-[[2-(trifluoromethyl)-4-pyridinyl]methyl]-3(2H)-pyridazinone]
[1]; Postemergence, 31 g ai/ha
  Plant response rating: 10
[1]; Postemergence, 62 g ai/ha
  Plant response rating: 10
[1]; Postemergence, 125 g ai/ha
  Plant response rating: 10
[1]; Postemergence, 250 g ai/ha
  Plant response rating: 10
[1]; Preemergence, 31 g ai/ha
  Plant response rating: 35
[1]; Preemergence, 62 g ai/ha
  Plant response rating: 85
[1]; Preemergence, 125 g ai/ha
  Plant response rating: 100
[1]; Preemergence, 250 g ai/ha
  Plant response rating: 100
[2]; post-emergence, Postemergence
  plant injury at 31 g/ha: 5%
  plant injury at 62 g/ha: 5%
  plant injury at 125 g/ha: 5%
  plant injury at 250 g/ha: 10%
[2]; pre-emergence, Preemergence
  plant injury at 31 g/ha: 15%
  plant injury at 62 g/ha: 50%
  plant injury at 125 g/ha: 90%
  plant injury at 250 g/ha: 95%
[3]; post-emergence, Postemergence
  pest or weed control at 31 g/ha: 5%
  pest or weed control at 62 g/ha: 5%
  pest or weed control at 125 g/ha: 10%
  pest or weed control at 250 g/ha: 20%
[3]; pre-emergence, Preemergence
  pest or weed control at 31 g/ha: 100%
  pest or weed control at 62 g/ha: 100%
  pest or weed control at 125 g/ha: 100%
  pest or weed control at 250 g/ha: 100%
[4]; post-emergence, Postemergence
  pest or weed control at 31 g/ha: 10%
  pest or weed control at 62 g/ha: 10%
  pest or weed control at 125 g/ha: 15%
  pest or weed control at 250 g/ha: 20%
[4]; pre-emergence, Preemergence
  pest or weed control at 31 g/ha: 100%
  pest or weed control at 62 g/ha: 100%
  pest or weed control at 125 g/ha: 100%
  pest or weed control at 250 g/ha: 100%
[5]; post-emergence, Postemergence
  pest or weed control at 31 g/ha: 40%
  pest or weed control at 62 g/ha: 65%
  pest or weed control at 125 g/ha: 70%
  pest or weed control at 250 g/ha: 70%
[5]; pre-emergence, Preemergence
  pest or weed control at 31 g/ha: 95%
  pest or weed control at 62 g/ha: 100%
  pest or weed control at 125 g/ha: 100%
  pest or weed control at 250 g/ha: 100%
[6]; 31 g ai/ha
  Plant response rating: 80
[6]; 62 g ai/ha
  Plant response rating: 80
[6]; 125 g ai/ha
  Plant response rating: 85
[6]; 250 g ai/ha
  Plant response rating: 85
[7]; Postemergence, 31 g ai/ha
  Plant response rating: 60
[7]; Postemergence, 125 g ai/ha
  Plant response rating: 65
[7]; Postemergence, 250 g ai/ha
  Plant response rating: 75
[7]; Preemergence, 31 g ai/ha
  Plant response rating: 100
